Reference: US5654427A, “Indolocarbazole derivatives to treat a pathological condition of the prostate” (Kyowa Hakko Kogyo Co., Ltd., priority 1995, dated 1997)

Columns and labels:
DU-145 = test: growth inhibition of DU-145 prostate cancer cells (calcein fluorescence); assay type: cell-based; settings: Homo sapiens, DU-145, 72 h; 3 days incubation; read-out: DU-145 C50
Experimental: Throughout the experiment the Tsu-Pr1 and Du-Pro1 cells were maintained in RPMI 1640 medium (GIBCO) containing 10% fetal bovine serum (Hyclone), 2 mM glutamine, 100 U/ml penicillin, and 100 μg/ml streptomycin. The PC-3 cells were maintained in Ham's F12K medium (Irvine Scientific) containing 10% fetal bovine serum (Hyclone), 2 mM glutamine, 100 U/ml penicillin, and 100 μg/ml streptomycin. All cell lines were maintained at 37° C. in a humidified atmosphere containing 5% CO2. The DU-145 cells were maintained in minimal essential medium (Gibco), containing 10% fetal bovine serum (Hyclone), 2 mM glutamine, and no antibiotics.
Tests for growth inhibition by the candidate compounds were conducted by the following procedure. In each well of a 96-well plate (Falcon) were placed 2,500 cells in 0.1 ml of medium. The cultures were incubated overnight after which a 0.1 ml aliquot of culture medium was added to each well. […] Other control wells received medium without any K-252a derivative compounds. Incubation was continued for three days. On day three the number of cells in each well was measured using a calcein fluorescence assay (Bozyczko-Coyne et al. J. Neurosci. Meth. 50, 205-216 (1993)).
Calcein AM (Molecular Probes, Eugene, Oreg.), an analog of the viable dye fluorescein diacetate, is taken up by cells and cleaved intracellularly to fluorescent salts that are retained by intact membranes of viable cells. This method thus provides a reliable and quantitative measurement of cell survival. Calcein AM was diluted 2× in Dulbeccos phosphate buffered saline (D-PBS) to 2× the final assay concentration (6 μM) and 100 μl was added to culture wells containing 100 μl of medium. The plates were then incubated for 1 hour at 37° C. Cells were then washed 4 times with D-PBS to remove excess calcein not taken up by cells. The plate was read using a Millipore plate reading fluorimeter (Cytofluor 2350) at emission=485 nm and excitation=538 nm. After subtraction of blank values (wells containing medium but no cells), relative fluorescent values reflect a quantitative measurement of cell survival.
The number of cells in the wells containing functional derivatives was compared to the number of cells in the control wells. The concentration which inhibited cell growth by 50% was calculated and is referred to as the "IC50 ".

prostate glands = test: inhibition of prostate growth in sexually immature mice (weight of prostate glands); assay type: in vivo; settings: for Ventral Prostate weight / Dorsal Prostate weight / Coagulat-ing Glands weight / Seminal Vesicles weight: Table 6; for Ventral Prostate weight: TEPBS 14.0 ± 0.8; for Dorsal Prostate weight: TEPBS 14.6 ± 1.4; for Coagulat-ing Glands weight: TEPBS 29.6 ± 2.0; for Seminal Vesicles weight: TEPBS 71.4 ± 2.4
Source text: The following animal model can be used to test the efficacy of a functional derivative for treatment of a proliferative prostate condition. Sexually immature male mice of 15-20 g each (Charles River Laboratories, Raleigh, N.C.) were used in the following in vivo study. The mice were allowed at least 3 days after purchase to acclimate before being used in any experiments.
Each test group contained 12 mice. […] At the end of the 21 day dosing period the mice were sacrificed and whole body blood, dorsal prostate, ventral prostate, coagulating glands, seminal vesicles, heart, liver, stomach, lung, kidneys and testes were collected separately and weighed.

COC1(CO)CC2OC1(C)n1c3ccccc3c3c4c(c5c6ccccc6n2c5c31)C(=O)NC4 (centres unmarked) [Compound I-19]
IC50 (DU-145): 110 nM
weights of ventral prostate, dorsal prostate, seminal vesicles, and coagulating glands, in words (prostate glands; 1 mg/kg): significantly reduced the weights of ventral prostate, dorsal prostate, seminal vesicles, and coagulating glands
weights of ventral prostate, dorsal prostate, seminal vesicles, and coagulating glands, in words (prostate glands; 10 mg/kg): significantly reduced the weights of ventral prostate, dorsal prostate, seminal vesicles, and coagulating glands
Ventral Prostate weight (prostate glands; 1 mg/kg): 11.0 ± 0.9 mg
Dorsal Prostate weight (prostate glands; 1 mg/kg): 10.4 ± 0.9 mg
Coagulat-ing Glands weight (prostate glands; 1 mg/kg): 24.6 ± 1.4 mg
Seminal Vesicles weight (prostate glands; 1 mg/kg): 60.0 ± 2.2 mg
Ventral Prostate weight (prostate glands; 10 mg/kg): 10.5 ± 0.6 mg
Dorsal Prostate weight (prostate glands; 10 mg/kg): 7.2 ± 0.8 mg
Coagulat-ing Glands weight (prostate glands; 10 mg/kg): 23.6 ± 0.8 mg
Seminal Vesicles weight (prostate glands; 10 mg/kg): 52.0 ± 2.0 mg
